The values that follow come from patent US4440784A, “Anti-inflammatory, analgesic, and antipyretic pharmaceutical composition” (Kanegafuchi Chemical Industry Company, Ltd., priority 1981, dated 1984).

The structures appear in SMILES notation. Read-outs that look alike come from different tables or passages of the source.

Data set [1] deals with acetic acid-induced writhing in mice. The data set is described as follows: acetic acid-induced writhing in mice (analgesic activity). Type of data set: in vivo, male ddY strain mice. The settings on record: po. The procedure:
An analgesic activity was evaluated by the method of acetic acid-induced writhing in mice [R. Koster et al., Federation Proc., 18, 412 (1959)]. Ten male ddY strain mice weighing 20~25 g were used in each group. Test compounds suspended in 2.5% acacia were administered p.o. to the mice. One hour later, the mice were injected i.p. with 0.6% acetic acid in a volume of 0.1 ml/10 g body weight. The number of writhes in each of mice was counted for 20 minutes after the injection of the acetic acid. Percent inhibition was calculated by the following equation. [formula]
A general note: An intraperitoneal irritant provokes the stretching counted in writhing tests.

Data set [2] relates to carrageenan-induced paw edema in rats. The data set is described as follows: carrageenan-induced paw edema in rats (acute anti-inflammatory activity). Type of data set: in vivo, male Wistar strain rats. The following applies: po; for inhibition in vivo at 50 mg/kg / inhibition in vivo at 100 mg/kg: rat, p.o.; for inhibition in vivo at 5 mg/kg: Rattus norvegicus. The procedure: (1) An acute anti-inflammatory activity was evaluated by the method of carrageenan-induced paw edema in rats [C. A. Winter et al., Proc. Soc. […] Six male Wistar strain rats weighing 150~180 g were used in each group. […] The volume of each paw edema was measured 3 and 5 hours after the injection of carrageenan. Percent edema inhibition was calculated by the following equation. [formula]
Background: In the carrageenan paw model, swelling and tenderness develop within hours.

For data set [3], the system named is yeast-induced fever in rats. The data set can be described thus: yeast-induced fever in rats (antipyretic activity). The following applies: po; for inhibition in vivo at 100 mg/kg / inhibition in vivo at 50 mg/kg: rat, p.o.; for inhibition in vivo at 5 mg/kg: Rattus norvegicus. Type of data set: in vivo, male Wistar strain rats. On the procedure: Five male Wistar strain rats weighing 150~180 g were used in each group. A 20% Baker's yeast suspension in 0.9% NaCl was injected s.c. into the dorsal region of rats in a volume of 1 ml/100 g body weight. […] The rectal temperature was determined with a thermometer, 1, 3 and 5 hours after the administration of test compounds. Percent inhibition was calculated by the following equation. [formula]

Data set [4] can be described thus: toxicity test in mice (LD50). The following applies: in vivo, po; mouse, 14 days observation. On the procedure:
Female ICR strain mice weighing 20~25 g in groups of six each were used for toxicity tests. Test compounds suspended in 2.5% acacia were administered p.o. to the mice. The animals were observed daily for 14 days after the administration. The LD50 values were estimated from mortality (No. of dead mice/No. of mice used).

The subject of data set [5] is adjuvant-induced arthritis in rats. The data set is described as follows: adjuvant-induced arthritis in rats (chronic anti-inflammatory activity). The following applies: rat, p.o. once daily. Type of data set: in vivo, male Sprague-Dawley strain rats. On the procedure: (3) A chronic anti-inflammatory activity was evaluated by the method of adjuvant-induced arthritis in rats [D. T. Walz et al., J. Pharmacol. and Exp. Ther., 178, 223 (1971)]. Eight male Sprague-Dawley strain rats weighing 190~230 g were used in each group. Into the left hind paw of rats was injected i.d. 0.5 mg of Mycobacterium butyricum suspended in 0.05 ml of paraffin oil. Test compounds suspended in 2.5% acacia were administered p.o. once daily for 21 days, starting on the day of the injection of an adjuvant (day 0). Paw volumes of adjuvant-injected and uninjected feet were measured on day 14 and on day 21. Percent inhibition was calculated by the following equation. [formula]

For data set [6], the system named is paper disk-induced granuloma in rats. The data set can be described thus: paper disk-induced granuloma in rats (sub-chronic anti-inflammatory activity). The following applies: rat, p.o. once daily for 7 days. Type of data set: in vivo, male Wistar strain rats. The procedure: Six male Wistar strain rats weighing 150~180 g were used in each group. Each paper disk (29±1 mg) was implanted s.c. into the bilateral area of the scapula of rats under anesthesia with amobarbital sodium. […] The rats were killed on day 7, at which time the paper disks with surrounding granulomatous tissues were removed and dried to constant weight overnight, and weighed. Percent inhibition was calculated by the following equation. [formula]

The mark [7] stands for this setting: Mus musculus, read-out: Inhibition (writhing).
[8] abbreviates: 3 hours after carrageenan, read-out: Percent edema inhibition, 3 hours.
Setting [9] is: 5 hours after carrageenan, read-out: Percent edema inhibition, 5 hours.
The mark [10] stands for this setting: mouse, p.o., 100 mg/kg, 1 hour before acetic acid i.p., read-out: Inhibition (writhing).
Setting [11] is: 1 hour after administration, read-out: Inhibition (fever), 1 hour.
Setting [12] is: 3 hours after administration, read-out: Inhibition (fever), 3 hours.
[13] abbreviates: 5 hours after administration, read-out: Inhibition (fever), 5 hours.

Consider `CC(=O)Oc1ccccc1C(=O)O` [Aspirin, reference compound], for which the inhibition in vivo at 100 mg/kg in data set [1] (setting [7]) was found to be 38%.

On to `CC(C)(C)c1cc(C=C(CCO)C(=O)O)cc(C(C)(C)C)c1O` [Compound I, β-Carboxy-β-(2-hydroxyethyl)-3,5-di-tert-butyl-4-hydroxystyrene], for which the inhibition in vivo at 50 mg/kg in data set [2] (setting [8]) worked out at 44.6%; in data set [2] (setting [9]) it was 41.6%. The inhibition in vivo at 100 mg/kg came out at 74.5% in data set [1] (setting [10]), 53.1% in data set [3] (setting [11]), 98.9% in data set [3] (setting [12]) and 70.3% in data set [3] (setting [13]). Also, the LD50 at 336 h in data set [4] is greater than 1000 mg/kg.

As for `COC(=O)C(=Cc1cc(C(C)(C)C)c(O)c(C(C)(C)C)c1)CCO` [Compound II, β-Methoxycarbonyl-β-(2-hydroxyethyl)-3,5-di-tert-butyl-4-hydroxystyrene], the inhibition in vivo at 50 mg/kg in data set [2] (setting [8]) was 52.1%; in data set [2] (setting [9]) it was 41.7%. The inhibition in vivo at 100 mg/kg came out at 79.8% in data set [1] (setting [10]), 42.5% in data set [3] (setting [11]), 64.5% in data set [3] (setting [12]) and 59.7% in data set [3] (setting [13]). The LD50 at 336 h in data set [4] is greater than 1000 mg/kg.

For `CCC(=Cc1cc(C(C)(C)C)c(O)c(C(C)(C)C)c1)C(=O)O` [Compound III, β-Carboxy-β-ethyl-3,5-di-tert-butyl-4-hydroxystyrene], the inhibition in vivo at 50 mg/kg in data set [2] (setting [8]) was found to be 12.1%; in data set [2] (setting [9]) it was 18.3%. The inhibition in vivo at 100 mg/kg was 28.2% in data set [1] (setting [10]), 14.6% in data set [3] (setting [11]), 31.8% in data set [3] (setting [12]) and 19.5% in data set [3] (setting [13]). The LD50 at 336 h in data set [4] is greater than 1000 mg/kg.

Consider `CCOC(=O)C(=Cc1cc(C(C)(C)C)c(O)c(C(C)(C)C)c1)C(C)=O` [Compound IV, β-Ethoxycarbonyl-β-acetyl-3,5-di-tert-butyl-4-hydroxystyrene], for which the inhibition in vivo at 50 mg/kg in data set [2] (setting [8]) is 30.3%; in data set [2] (setting [9]) it was 28.4%. Besides, the inhibition in vivo at 100 mg/kg in data set [1] (setting [10]) is 56.9%; in data set [3] (setting [11]), 23%; in data set [3] (setting [12]) it was 40.9%; in data set [3] (setting [13]), 41.6%. The LD50 at 336 h in data set [4] was greater than 1000 mg/kg.

In the case of `CC(=O)C(C)=Cc1cc(C(C)(C)C)c(O)c(C(C)(C)C)c1` [Compound VI, β-Acetyl-β-methyl-3,5-di-tert-butyl-4-hydroxystyrene], the inhibition in vivo at 50 mg/kg stood at 32.5% in data set [2] (setting [8]) and 20.7% in data set [2] (setting [9]). The inhibition in vivo at 100 mg/kg in data set [1] (setting [10]) came to 47.8%; in data set [3] (setting [11]), 38.1%; in data set [3] (setting [12]), 45.5%; in data set [3] (setting [13]), 41.6%. For the same compound, in data set [4], the LD50 at 336 h is greater than 1000 mg/kg.

Turning to `CC(C)(C)c1cc(C=CC(=O)c2ccccc2)cc(C(C)(C)C)c1O` [Compound VII, β-Benzoyl-3,5-di-tert-butyl-4-hydroxystyrene], the inhibition in vivo at 50 mg/kg in data set [2] (setting [8]) came to 16.9%; in data set [2] (setting [9]), 19.7%. Besides, the inhibition in vivo at 100 mg/kg in data set [1] (setting [10]) came out at 33%; in data set [3] (setting [11]), 15.9%; in data set [3] (setting [12]), 27.7%; in data set [3] (setting [13]), 21.4%. Also, the LD50 at 336 h in data set [4] is greater than 1000 mg/kg.

As to `CC(C)(C)c1cc(C=CC(N)=O)cc(C(C)(C)C)c1O` [Compound VIII, β-Carbamoyl-3,5-di-tert-butyl-4-hydroxystyrene], the inhibition in vivo at 50 mg/kg came to 17.6% in data set [2] (setting [8]) and 14.6% in data set [2] (setting [9]). The inhibition in vivo at 100 mg/kg in data set [1] (setting [10]) amounted to 25.8%; in data set [3] (setting [11]), 19.9%; in data set [3] (setting [12]), 25.9%; in data set [3] (setting [13]), 16.9%. The same compound came in with an LD50 at 336 h in data set [4] greater than 1000 mg/kg.

In the case of `CC(C)(C)c1cc(C=C[N+](=O)[O-])cc(C(C)(C)C)c1O` [Compound X, β-Nitro-3,5-di-tert-butyl-4-hydroxystyrene], the figures for the inhibition in vivo at 50 mg/kg in data set [2] (setting [8]) and in data set [2] (setting [9]) were 11% and 17.3%, respectively. The inhibition in vivo at 100 mg/kg is 24.4% in data set [1] (setting [7]), 18.6% in data set [3] (setting [11]), 30.5% in data set [3] (setting [12]) and 23.4% in data set [3] (setting [13]). This compound also yielded an LD50 at 336 h in data set [4] greater than 1000 mg/kg.

For `CC(C)(C)c1cc(C=C(C#N)S(C)(=O)=O)cc(C(C)(C)C)c1O` [Compound XI, β-Methylsulfonyl-β-cyano-3,5-di-tert-butyl-4-hydroxystyrene], the inhibition in vivo at 50 mg/kg worked out at 35.1% in data set [2] (setting [8]); 18.3% in data set [2] (setting [9]); 31.6% in data set [1] (mouse, p.o., 50 mg/kg, 1 hour before acetic acid i.p.); 23.2% in data set [3] (setting [11]); 31.2% in data set [3] (setting [12]); 19.9% in data set [3] (setting [13]). The LD50 at 336 h in data set [4] lay within 250 to 500 mg/kg.

As to `CC(C)Cc1ccc(C(C)C(=O)O)cc1` (stereo not drawn) [Ibuprofen, reference compound], in data set [5] (12.5 mg/kg/day), the “Inhibition, injected foot, Day 14” value is recorded as -2.6%; the “Inhibition, injected foot, Day 21” value is -17.4%; the “Inhibition, uninjected foot, Day 14” value worked out at 13.5%; the “Inhibition, uninjected foot, Day 21” value is -7.4%. In addition, in data set [5] (50 mg/kg/day), the “Inhibition, injected foot, Day 14” value is listed as -1.7%; the “Inhibition, injected foot, Day 21” value is 28.7%; the “Inhibition, uninjected foot, Day 14” value turned out to be 32.4%; the “Inhibition, uninjected foot, Day 21” value worked out at 44.4%.

`COc1ccc2c(c1)c(CC(=O)O)c(C)n2C(=O)c1ccc(Cl)cc1` [Indomethacin, reference compound]: the inhibition in vivo at 5 mg/kg in data set [2] (3 h, read-out: Percent edema inhibition, 3 hours) was found to be 32.8%; in data set [2] (5 h, read-out: Percent edema inhibition, 5 hours), 39.2%; in data set [1] (setting [7]), 62.7%; in data set [3] (1 h, read-out: Inhibition (fever), 1 hour) it was 35.4%; in data set [3] (3 h, read-out: Inhibition (fever), 3 hours), 56.4%; in data set [3] (5 h, read-out: Inhibition (fever), 5 hours), 66.2%. The “Inhibition (granuloma)” value turned out to be 14.0% in data set [6] (1.25 mg/kg/day) and 25.5% in data set [6] (5 mg/kg/day).

As for `CCCCC1C(=O)N(c2ccccc2)N(c2ccccc2)C1=O` [Phenylbutazone, reference compound], the inhibition in vivo at 100 mg/kg in data set [2] (setting [8]) came out at 23.6%; in data set [2] (setting [9]) it was 28.9%. Further, the “Inhibition (granuloma)” value in data set [6] (25 mg/kg/day) came out at 5.6%; in data set [6] (100 mg/kg/day), 24.2%.

As a reminder, the LD50 is the dose at which mortality reaches 50%. Higher therefore signals lower toxicity.
